# In patent publication US8269026B2, “Lupane derivatives useful for treating HIV” (priority 2008, dated 2012):
# Tested on: HIV-1 (HIVIIIB) replication in MT2 cell line
# Assay: HIV-1 replication in MT2 cell line with and without 30% human serum (viral RT activity in supernatant)
# Format: cell-based
# Conditions: Human immunodeficiency virus 1, MT2 cells, with 30% human serum, average IC50 if tested more than once, read-out: MT2 (HIVIIIB) with HS 30% IC50 range
# Method: HIV-1 Replication in MT2 cell line with and without 30% human serum: The cells are infected at a Multiciplicity of Infection (MOI) of 0.5 for 3 h and then washed twice with complete media to remove residual virus. Cells are then resuspended at 0.5×10^6/ml in complete medium (RPMI, 10% FBS, 1% sodium pyruvate), and seeded into 96-well plates (6.25×10^4/well). The cells are cultured in the presence or absence of various concentrations of test compounds in serial dilutions for 3 days at 37° C. The test compounds are serially diluted in complete medium supplemented or not with 30% human serum. After 3 days, 100 μL of cultured medium with cells are replaced with 120 μL of freshly diluted test compounds in complete medium containing or not 30% Human serum. The level of HIV-1 replication is determined at days 5 after infection by the presence of viral RT activity in harvested supernatant fluid. The IC50 and IC90 values for the virus replication are determined by using GRAPHPAD PRISM software.
# The IC50 of the compounds tested in accordance with the HIV replication activity assay MT2 (HIVIIIB) are represented in Table 1.
row,Compound,IC50 [nM]
1,"CC(C)C1=C2C3CCC4[C@@]5(C)CC[C@H](OC(=O)CC(C)(C)C(=O)O)C(C)(C)C5CC[C@@]4(C)[C@]3(C)CC[C@@]2(NC(=O)N[C@@H](C)C2CCCCC2)CC1=O (stereo partly drawn) [17-54, 3β-O-(3′,3′-Dimethylsuccinyl)-17β-[N′-((S)-1-cyclohexyl-ethyl)ureido]-21-oxolup-18-ene]",< 199
2,"CC(C)C1=C2C3CCC4[C@@]5(C)CC[C@H](OC(=O)CC(C)(C)C(=O)O)C(C)(C)C5CC[C@@]4(C)[C@]3(C)CC[C@@]2(NC(=O)OCC2CC2)CC1=O (stereo partly drawn) [20-3, 3β-O-(3′,3′-Dimethylsuccinyl)-17β-cyclopropylmethoxycarbonylamino-21-oxolup-18-ene]",< 199
3,"CC(C)C1=C2C3CCC4[C@@]5(C)CC[C@H](OC(=O)CC(C)(C)C(=O)O)C(C)(C)C5CC[C@@]4(C)[C@]3(C)CC[C@@]2(NC(=O)OC2CCS(=O)(=O)CC2)CC1=O (stereo partly drawn) [20-15, 3β-O-(3′,3′-Dimethylsuccinyl)-17β-(1,1-dioxo-tetrahydro-thiopyran-4-oxycarbonylamino)-21-oxolup-18-ene]",< 199
4,"CC(=O)N[C@@]12CC[C@]3(C)[C@H](CC[C@@H]4[C@@]5(C)CC[C@H](OC(=O)CC(C)(C)C(=O)O)C(C)(C)[C@@H]5CC[C@]43C)C1=C(C(C)C)C(=O)C2 [19-1, 3β-O-(3′,3′-Dimethylsuccinyl)-17β-acetylamino-21-oxolup-18-ene]",< 199
5,"CC(C)C1=C2C3CCC4[C@@]5(C)CC[C@H](OC(=O)CC(C)(C)C(=O)O)C(C)(C)C5CC[C@@]4(C)[C@]3(C)CC[C@@]2(NC(=O)N2CCC(F)(F)CC2)CC1=O (stereo partly drawn) [17-59, 3β-O-(3′,3′-Dimethylsuccinyl)-17β-[(4,4-difluoro-piperidine-1-carbonyl)-amino]-21-oxolup-18-ene]",< 199
6,"CC(C)C1=C2C3CCC4[C@@]5(C)CC[C@H](OC(=O)CC(C)(C)C(=O)O)C(C)(C)C5CC[C@@]4(C)[C@]3(C)CC[C@@]2(NC(=O)c2cn[nH]c2)CC1=O (stereo partly drawn) [19-82, 3β-O-(3′,3′-Dimethylsuccinyl)-17β-(1H-pyrazole-4-amido)-21-oxolup-18-ene]",< 199
7,"CC(C)C1=C2C3CCC4[C@@]5(C)CC[C@H](OC(=O)CC(C)(C)C(=O)O)C(C)(C)C5CC[C@@]4(C)[C@]3(C)CC[C@@]2(NC(=O)C2CC3CCC(C2)O3)CC1=O (stereo partly drawn) [19-70, 3β-O-(3′,3′-Dimethylsuccinyl)-17β-(8β-oxa-bicyclo[3.2.1]octane-3-amido)-21-oxolup-18-ene]",< 199
8,"CC(C)C1=C2C3CCC4[C@@]5(C)CC[C@H](OC(=O)CC(C)(C)C(=O)O)C(C)(C)C5CC[C@@]4(C)[C@]3(C)CC[C@@]2(NC(=O)NC2CC2)CC1=O (stereo partly drawn) [17-22, 3β-O-(3′,3′-Dimethylsuccinyl)-17β-(N′-cyclopropyl-ureido)-21-oxolup-18-ene]",< 199
9,"CC(C)C1=C2[C@H]3CC[C@@H]4[C@@]5(C)CC[C@H](OC(=O)CC(C)(C)C(=O)O)C(C)(C)[C@@H]5CC[C@@]4(C)[C@]3(C)CC[C@@]2(NC(=O)CCCN2CCCC2)CC1=O [19-39, 3β-O-(3′,3′-Dimethylsuccinyl)-17β-(4-pyrrolidin-1-yl-butyramido)-21-oxolup-18-ene]",< 199
10,"CC(C)C1=C2[C@H]3CC[C@@H]4[C@@]5(C)CC[C@H](OC(=O)CC(C)(C)C(=O)O)C(C)(C)[C@@H]5CC[C@@]4(C)[C@]3(C)CC[C@@]2(NC(=O)N2CCN(C(C)C)CC2)CC1=O [17-29, 3β-O-(3′,3′-Dimethylsuccinyl)-17β-[(4-isopropyl-piperazine-1-carbonyl)-amino]-21-oxolup-18-ene]",< 199
11,"CC(C)C1=C2[C@H]3CC[C@@H]4[C@@]5(C)CC[C@H](OC(=O)CC(C)(C)C(=O)O)C(C)(C)[C@@H]5CC[C@@]4(C)[C@]3(C)CC[C@@]2(NC(=O)C2CCNCC2)CC1=O [19-6, 3β-O-(3′,3′-Dimethylsuccinyl)-17β-(piperidine-4-amido)-21-oxolup-18-ene]",> 1000
12,"CNC1CCN(C(=O)N[C@@]23CC[C@]4(C)C(CCC5[C@@]6(C)CC[C@H](OC(=O)CC(C)(C)C(=O)O)C(C)(C)C6CC[C@]54C)C2=C(C(C)C)C(=O)C3)CC1 (stereo partly drawn) [17-39, 3β-O-(3′,3′-Dimethylsuccinyl)-17β-[(4-methylamino-piperidine-1-carbonyl)-amino]-21-oxolup-18-ene]",200 to 999
13,"CC(C)C1=C2C3CCC4[C@@]5(C)CC[C@H](OC(=O)CC(C)(C)C(=O)O)C(C)(C)C5CC[C@@]4(C)[C@]3(C)CC[C@@]2(NC(=O)OCCN2CCCC2)CC1=O (stereo partly drawn) [20-23, 3β-O-(3′,3′-Dimethylsuccinyl)-17β-(2-pyrrolidin-1-ethoxycarbonylamino)-21-oxolup-18-ene]",< 199
14,"Cc1cncc(C(=O)N[C@@]23CC[C@]4(C)[C@H](CC[C@@H]5[C@@]6(C)CC[C@H](OC(=O)CC(C)(C)C(=O)O)C(C)(C)[C@@H]6CC[C@]54C)C2=C(C(C)C)C(=O)C3)c1 [19-47, 3β-O-(3′,3′-Dimethylsuccinyl)-17β-(5-methylpyridin-3-yl)amido-21-oxolup-18-ene]",< 199
15,"CC(C)C1=C2[C@H]3CC[C@@H]4[C@@]5(C)CC[C@H](OC(=O)CC(C)(C)C(=O)O)C(C)(C)[C@@H]5CC[C@@]4(C)[C@]3(C)CC[C@@]2(NC(=O)CCN2CCCCC2)CC1=O [19-40, 3β-O-(3′,3′-Dimethylsuccinyl)-17β-(3-piperidin-1-yl-propionamido)-21-oxolup-18-ene]",< 199
16,"CC(C)C1=C2[C@H]3CC[C@@H]4[C@@]5(C)CC[C@H](OC(=O)CC(C)(C)C(=O)O)C(C)(C)[C@@H]5CC[C@@]4(C)[C@]3(C)CC[C@@]2(NC(=O)CN2CCN(C)CC2)CC1=O [19-54, 3β-O-(3′,3′-Dimethylsuccinyl)-17β-(4-methylpiperazine-1-acetamido)-21-oxolup-18-ene]",< 199
17,"Cc1cc(C(=O)N[C@@]23CC[C@]4(C)[C@H](CC[C@@H]5[C@@]6(C)CC[C@H](OC(=O)CC(C)(C)C(=O)O)C(C)(C)[C@@H]6CC[C@]54C)C2=C(C(C)C)C(=O)C3)ccn1 [19-52, 3β-O-(3′,3′-Dimethylsuccinyl)-17β-(2-methylpyridin-4-yl)amido-21-oxolup-18-ene]",< 199
18,"Cc1cc(C(=O)N[C@@]23CC[C@]4(C)C(CCC5[C@@]6(C)CC[C@H](OC(=O)CC(C)(C)C(=O)O)C(C)(C)C6CC[C@]54C)C2=C(C(C)C)C(=O)C3)no1 (stereo partly drawn) [19-24, 3β-O-(3′,3′-Dimethylsuccinyl)-17β-(5-methylisoxazole-3-amido)-21-oxolup-18-ene]",< 199
19,"CC(C)C1=C2C3CCC4[C@@]5(C)CC[C@H](OC(=O)CC(C)(C)C(=O)O)C(C)(C)C5CC[C@@]4(C)[C@]3(C)CC[C@@]2(NC(=O)C(=O)N(C)C)CC1=O (stereo partly drawn) [19-74, 3β-O-(3′,3′-Dimethylsuccinyl)-17β-(N′,N′-dimethyl-oxalamido)-21-oxolup-18-ene]",< 199

# Same assay, conditions: Human immunodeficiency virus 1, MT2 cells, without human serum, average IC50 if tested more than once, read-out: MT2 (HIVIIIB) IC50 range
row,Compound,IC50 [nM]
1,"CC(C)C1=C2C3CCC4[C@@]5(C)CC[C@H](OC(=O)CC(C)(C)C(=O)O)C(C)(C)C5CC[C@@]4(C)[C@]3(C)CC[C@@]2(NC(=O)OCC2CC2)CC1=O (stereo partly drawn) [20-3, 3β-O-(3′,3′-Dimethylsuccinyl)-17β-cyclopropylmethoxycarbonylamino-21-oxolup-18-ene]",< 199
2,"CC(=O)N[C@@]12CC[C@]3(C)[C@H](CC[C@@H]4[C@@]5(C)CC[C@H](OC(=O)CC(C)(C)C(=O)O)C(C)(C)[C@@H]5CC[C@]43C)C1=C(C(C)C)C(=O)C2 [19-1, 3β-O-(3′,3′-Dimethylsuccinyl)-17β-acetylamino-21-oxolup-18-ene]",< 199
3,"CC(C)C1=C2[C@H]3CC[C@@H]4[C@@]5(C)CC[C@H](OC(=O)CC(C)(C)C(=O)O)C(C)(C)[C@@H]5CC[C@@]4(C)[C@]3(C)CC[C@@]2(NC(=O)C2CCNCC2)CC1=O [19-6, 3β-O-(3′,3′-Dimethylsuccinyl)-17β-(piperidine-4-amido)-21-oxolup-18-ene]",< 199
4,"Cc1cc(C(=O)N[C@@]23CC[C@]4(C)C(CCC5[C@@]6(C)CC[C@H](OC(=O)CC(C)(C)C(=O)O)C(C)(C)C6CC[C@]54C)C2=C(C(C)C)C(=O)C3)no1 (stereo partly drawn) [19-24, 3β-O-(3′,3′-Dimethylsuccinyl)-17β-(5-methylisoxazole-3-amido)-21-oxolup-18-ene]",< 199
5,"CC(C)C1=C2[C@H]3CC[C@@H]4[C@@]5(C)CC[C@H](OC(=O)[C@H]6CCC[C@@H](C(=O)O)C6)C(C)(C)[C@@H]5CC[C@@]4(C)[C@]3(C)CC[C@@]2(NC(=O)OC(C)(C)C)CC1=O [14-2, 3β-O-(cis-Cyclohexane-3′-carboxylic acid-1′-carboxyl)-17β-[N-tert-butyloxycarbonyl-amino]-21-oxolup-18-ene]",> 1000
